Here are results for 28 compounds from US20220089592A1, “IMIDAZO[1,2-A]PYRIDINYL DERIVATIVES AS IRAK4 INHIBITORS” (priority 2019, published 2022).

Each structure is given as a SMILES string.

Experiment [1] addresses T1, IRAK4 (Homo sapiens, UniProt Q9NWZ3).
T1 sequence (Q9NWZ3 1-460): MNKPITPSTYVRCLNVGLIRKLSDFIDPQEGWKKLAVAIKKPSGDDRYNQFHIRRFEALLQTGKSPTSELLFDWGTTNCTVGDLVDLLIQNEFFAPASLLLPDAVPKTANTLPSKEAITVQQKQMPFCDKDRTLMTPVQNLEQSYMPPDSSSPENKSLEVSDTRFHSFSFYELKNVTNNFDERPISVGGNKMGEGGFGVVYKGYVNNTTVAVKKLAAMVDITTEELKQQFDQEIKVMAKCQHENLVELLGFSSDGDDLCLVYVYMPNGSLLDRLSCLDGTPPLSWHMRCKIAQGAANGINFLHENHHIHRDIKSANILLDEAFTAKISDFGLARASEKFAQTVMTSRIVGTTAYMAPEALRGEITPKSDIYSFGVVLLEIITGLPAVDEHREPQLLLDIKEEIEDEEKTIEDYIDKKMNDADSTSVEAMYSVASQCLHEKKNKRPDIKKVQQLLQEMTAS
Nature of the experiment: 2-hour 10 μM ATP Biochemical Assay (MesoScale Detection format; IRAK4 phosphorylation of biotin labeled IRAK1 activation loop peptide). Conditions: IRAK4 MSD BIOCHEMICAL (10 μM ATP) IC50 (μM), 1 nM IRAK4, 2 hours. An outline of the steps:
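Electrochemiluminescent MSD readout: after streptavidin capture, phosphothreonine on the biotin-labelled IRAK1 activation-loop peptide detected by rabbit antibody and Sulfo-Tag secondary. Phosphorylation ran 2 h with 10 μM ATP before EDTA quench.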

In experiment [2] the target is T1, IRAK4. Nature of the experiment: 2-hour 1 mM ATP IRAK4 Biochemical assay (as above, but with 100 pM IRAK4 and 1 mM ATP). The settings on record: IRAK4 MSD BIOCHEMICAL (1 mM ATP) IC50 (μM), 100 pM IRAK4, 2 hours. The method in brief: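 MSD electrochemiluminescence read-out: biotinylated peptide product bound to streptavidin plates, probed with anti-P-Thr rabbit antibody and Sulfo-Tag goat anti-rabbit. Kinase reaction used 1 mM ATP and 100 pM IRAK4 over 2 hours before EDTA quench.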

For `O=C(Nc1cn2cc(C3CCOCC3)nc2cc1OC1CCOCC1)c1cccc(C(F)F)n1` [Example 185, 6-(difluoromethyl)-N-(2-(tetrahydro-2H-pyran-4-yl)-7-((tetrahydro-2H-pyran-4-yl)oxy)imidazo[1,2-a]pyridin-6-yl)picolinamide], the IC50 – broadly, the point on the concentration scale where inhibition reaches its midpoint – was 0.001 µM at IRAK4 [1] and 0.002 µM against IRAK4 [2].

On to `CCOc1cc2nc(C3CCOCC3)cn2cc1NC(=O)c1csc(CC)n1` [Example 202, N-(7-ethoxy-2-(tetrahydro-2H-pyran-4-yl)imidazo[1,2-a]pyridin-6-yl)-2-ethylthiazole-4-carboxamide], for which the IC50 at IRAK4 [1] turned out to be 0.002 µM; on IRAK4 [2], 0.004 µM.

Consider `CCOc1cc2nc(C3CCOCC3)cn2cc1NC(=O)c1csc(C2CC2)n1` [Example 203, 2-cyclopropyl-N-(7-ethoxy-2-(tetrahydro-2H-pyran-4-yl)imidazo[1,2-a]pyridin-6-yl)thiazole-4-carboxamide], for which the concentration for half-maximal inhibition (IC50) against IRAK4 [1] and at IRAK4 [2] was 0.001 µM in each case.

For `CCOc1cc2nc(C3CCOCC3)cn2cc1NC(=O)c1ccn(C)n1` [Example 204, N-(7-ethoxy-2-(tetrahydro-2H-pyran-4-yl)imidazo[1,2-a]pyridin-6-yl)-1-methyl-1H-pyrazole-3-carboxamide], the IC50 at IRAK4 [1] turned out to be 0.004 µM; against IRAK4 [2], 0.021 µM.

Turning to `CCOc1cc2nc(C3CCOCC3)cn2cc1NC(=O)c1ccn(CC)n1` [Example 205, N-(7-ethoxy-2-(tetrahydro-2H-pyran-4-yl)imidazo[1,2-a]pyridin-6-yl)-1-ethyl-1H-pyrazole-3-carboxamide], the IC50 against IRAK4 [1] is 0.003 µM; on IRAK4 [2] it was 0.012 µM.

As to `CCOc1cc2nc(C3CCOCC3)cn2cc1NC(=O)c1ccn(C(C)C)n1` [Example 206, N-(7-ethoxy-2-(tetrahydro-2H-pyran-4-yl)imidazo[1,2-a]pyridin-6-yl)-1-isopropyl-1H-pyrazole-3-carboxamide], the figures for the 50% inhibitory concentration (IC50) against IRAK4 [1] and against IRAK4 [2] were 0.005 µM and 0.019 µM, respectively.

`CCOc1cc2nc(C3CCOCC3)cn2cc1NC(=O)c1ccn(C2CCCC2)n1` [Example 208, 1-cyclopentyl-N-(7-ethoxy-2-(tetrahydro-2H-pyran-4-yl)imidazo[1,2-a]pyridin-6-yl)-1H-pyrazole-3-carboxamide]: the IC50 at IRAK4 [1] came to 0.002 µM; at IRAK4 [2], 0.008 µM.

For `CCOc1cc2nc(C3CCOCC3)cn2cc1NC(=O)c1ccn(C2CC2(F)F)n1` (centres unmarked) [Example 209, 1-(2,2-difluorocyclopropyl)-N-(7-ethoxy-2-(tetrahydro-2H-pyran-4-yl)imidazo[1,2-a]pyridin-6-yl)-1H-pyrazole-3-carboxamide], the values for the IC50 at IRAK4 [1] and against IRAK4 [2] were 0.005 µM and 0.009 µM, respectively.

As to `CCOc1cc2nc(C3CCOCC3)cn2cc1NC(=O)c1cc(F)n(C)n1` [Example 210, N-(7-ethoxy-2-(tetrahydro-2H-pyran-4-yl)imidazo[1,2-a]pyridin-6-yl)-5-fluoro-1-methyl-1H-pyrazole-3-carboxamide], the half-inhibitory concentration (IC50) at IRAK4 [1] is 0.015 µM; on IRAK4 [2] it was 0.038 µM.

On to `CCOc1cc2nc(C3CCOCC3)cn2cc1NC(=O)c1scc(C)c1OC` [Example 211, N-(7-ethoxy-2-(tetrahydro-2H-pyran-4-yl)imidazo[1,2-a]pyridin-6-yl)-3-methoxy-4-methylthiophene-2-carboxamide], for which the IC50 against IRAK4 [1] came to 0.007 µM; against IRAK4 [2], 0.022 µM.

As to `CCOc1cc2nc(C3CCOCC3)cn2cc1NC(=O)c1ccccc1OC` [Example 213, N-(7-ethoxy-2-(tetrahydro-2H-pyran-4-yl)imidazo[1,2-a]pyridin-6-yl)-2-methoxybenzamide], the IC50 at IRAK4 [1] came to 0.005 µM; against IRAK4 [2] it was 0.019 µM.

On to `CCOc1cc2nc(C3CCOCC3)cn2cc1NC(=O)c1cccc(C)c1F` [Example 214, N-(7-ethoxy-2-(tetrahydro-2H-pyran-4-yl)imidazo[1,2-a]pyridin-6-yl)-2-fluoro-3-methylbenzamide], for which the concentration for half-maximal inhibition (IC50) on IRAK4 [1] came to 0.003 µM; on IRAK4 [2] it was 0.007 µM.

Take `CCOc1cc2nc(C3CCOCC3)cn2cc1NC(=O)c1cccc(OC)c1F` [Example 215, N-(7-ethoxy-2-(tetrahydro-2H-pyran-4-yl)imidazo[1,2-a]pyridin-6-yl)-2-fluoro-3-methoxybenzamide]: the concentration for half-maximal inhibition (IC50) worked out at 0.008 µM against IRAK4 [1] and 0.037 µM against IRAK4 [2].

As for `CCOc1cc2nc(C3CCOCC3)cn2cc1NC(=O)c1ccccn1` [Example 216, N-(7-ethoxy-2-(tetrahydro-2H-pyran-4-yl)imidazo[1,2-a]pyridin-6-yl)picolinamide], the IC50 on IRAK4 [1] was 0.007 µM; against IRAK4 [2], 0.023 µM.

Consider `CCOc1cc2nc(C3CCOCC3)cn2cc1NC(=O)c1cccc(C(C)C)n1` [Example 218, N-(7-ethoxy-2-(tetrahydro-2H-pyran-4-yl)imidazo[1,2-a]pyridin-6-yl)-6-isopropylpicolinamide], for which the values for the IC50 against IRAK4 [1] and against IRAK4 [2] were 0.001 µM and 0.002 µM, respectively.

With `CCOc1cc2nc(C3CCOCC3)cn2cc1NC(=O)c1ccc(F)cn1` [Example 219, N-(7-ethoxy-2-(tetrahydro-2H-pyran-4-yl)imidazo[1,2-a]pyridin-6-yl)-5-fluoropicolinamide], the IC50 at IRAK4 [1] was 0.007 µM; against IRAK4 [2], 0.055 µM.

On to `CCOc1cc2nc(C3CCOCC3)cn2cc1NC(=O)c1cccc(OC(C)C)n1` [Example 220, N-(7-ethoxy-2-(tetrahydro-2H-pyran-4-yl)imidazo[1,2-a]pyridin-6-yl)-6-isopropoxypicolinamide], for which the IC50 came out at 0.004 µM at IRAK4 [1] and 0.02 µM at IRAK4 [2].

Consider `CCOc1cc2nc(C3CCOCC3)cn2cc1NC(=O)c1scc2c1OCCO2` [Example 221, N-(7-ethoxy-2-(tetrahydro-2H-pyran-4-yl)imidazo[1,2-a]pyridin-6-yl)-2,3-dihydrothieno[3,4-b][1,4]dioxine-5-carboxamide], for which the 50% inhibitory concentration (IC50) on IRAK4 [1] was 0.001 µM; at IRAK4 [2], 0.011 µM.

In the case of `CCOc1cc2nc(C3CCOCC3)cn2cc1NC(=O)c1ccn2c1CCCC2` [Example 222, N-(7-ethoxy-2-(tetrahydro-2H-pyran-4-yl)imidazo[1,2-a]pyridin-6-yl)-5,6,7,8-tetrahydroindolizine-1-carboxamide], the IC50 at IRAK4 [1] came out at 0.01 µM; at IRAK4 [2], 0.041 µM.

In the case of `CCOc1cc2nc(C3CCOCC3)cn2cc1NC(=O)c1csc(C)n1` [Example 223, N-(7-ethoxy-2-(tetrahydro-2H-pyran-4-yl)imidazo[1,2-a]pyridin-6-yl)-2-methylthiazole-4-carboxamide], the figures for the concentration for half-maximal inhibition (IC50) against IRAK4 [1] and against IRAK4 [2] were 0.004 µM and 0.01 µM, respectively.

As to `CCOc1cc2nc(C3CCOCC3)cn2cc1NC(=O)c1cccc(C)n1` [Example 224, N-(7-ethoxy-2-(tetrahydro-2H-pyran-4-yl)imidazo[1,2-a]pyridin-6-yl)-6-methylpicolinamide], the IC50 came to 0.001 µM at IRAK4 [1] and 0.003 µM at IRAK4 [2].

On to `CCOc1cc2nc(C3CCOCC3)cn2cc1NC(=O)c1ccn2c1CCC2` [Example 225, N-(7-ethoxy-2-(tetrahydro-2H-pyran-4-yl)imidazo[1,2-a]pyridin-6-yl)-2,3-dihydro-1H-pyrrolizine-7-carboxamide], for which the IC50 against IRAK4 [1] came to 0.009 µM; against IRAK4 [2] it was 0.029 µM.

Regarding `CCOc1cc2nc(C3CCOCC3)cn2cc1NC(=O)c1cccc(C(C)(F)F)n1` [Example 227, 6-(1,1-difluoroethyl)-N-(7-ethoxy-2-(tetrahydro-2H-pyran-4-yl)imidazo[1,2-a]pyridin-6-yl)picolinamide], the IC50 at IRAK4 [1] and on IRAK4 [2] was 0.001 µM throughout.

As for `CCOc1cc2nc(C3CCOCC3)cn2cc1NC(=O)c1cccc(C(F)F)c1` [Example 228, 3-(difluoromethyl)-N-(7-ethoxy-2-(tetrahydro-2H-pyran-4-yl)imidazo[1,2-a]pyridin-6-yl)benzamide], the IC50 stood at 0.013 µM against IRAK4 [1] and 0.056 µM against IRAK4 [2].

Regarding `CCOc1cc2nc(C3CCOCC3)cn2cc1NC(=O)c1ccn(C(F)F)n1` [Example 230, 1-(difluoromethyl)-N-(7-ethoxy-2-(tetrahydro-2H-pyran-4-yl)imidazo[1,2-a]pyridin-6-yl)-1H-pyrazole-3-carboxamide], the IC50 against IRAK4 [1] was found to be 0.001 µM; on IRAK4 [2], 0.003 µM.

As to `CCOc1cc2nc(C3CCOCC3)cn2cc1NC(=O)c1csc(C(F)(F)F)n1` [Example 231, N-(7-ethoxy-2-(tetrahydro-2H-pyran-4-yl)imidazo[1,2-a]pyridin-6-yl)-2-(trifluoromethyl)thiazole-4-carboxamide], the half-maximal inhibitory concentration (IC50) is 0.001 µM against IRAK4 [1] and 0.007 µM on IRAK4 [2].

For `COCCCc1cn2cc(NC(=O)c3cccc(C(F)F)n3)ccc2n1` [Example 234, 6-(difluoromethyl)-N-(2-(3-methoxypropyl)imidazo[1,2-a]pyridin-6-yl)picolinamide], the values for the concentration for half-maximal inhibition (IC50) at IRAK4 [1] and against IRAK4 [2] were 0.011 µM and 0.049 µM, respectively.

Turning to `CCOc1cc2nc(C3CCOCC3)cn2cc1NC(=O)c1cccc(OC2CCC2)n1` [Example 236, 6-cyclobutoxy-N-(7-ethoxy-2-(tetrahydro-2H-pyran-4-yl)imidazo[1,2-a]pyridin-6-yl)picolinamide], the half-inhibitory concentration (IC50) against IRAK4 [1] amounted to 0.006 µM; against IRAK4 [2] it was 0.019 µM.
